Data set [1] addresses T1, metal site of insulin R6 hexamers (Homo sapiens, UniProt P01308).
T1 construct: human insulin comprising additional amino acids, i.e. more than 51 amino acids
The note with it: taken from Huang et al., 1997; read-out: K4H3N; cited from earlier work.

Data set [2] can be described thus: Disappearance rate from the subcutaneous depot following injection in pigs. It counts as in vivo. The note with it: disappearance assay. The source says: Formulations of the present invention were characterized by the disappearance rate from the subcutaneous depot following injection in pigs. Formulations of B28 Asp human insulin containing A14Tyr(^125I) B28 Asp human insulin were followed with an external γ-counter (Ribel et al., The pig as a model for subcutaneous absorption in man. In: Serrano-Ritos & Lefebre (Eds.): Diabetes (1985) proceedings ot the 12th congress of the international diabetes federation, Madrid, Spain, 1985 (Excerpta Medica, Amsterdam (1986) 891-896. Formulations of Insulin Aspart (0.6 mM, U100) containing 0.3 mM Zn^2+, 30 mM phenol, 2 mM phosphate buffer, and 1.6% glycerol, pH 7.4, were compared with the corresponding formulations containing 0.3 mM of the ligands shown below: where T50% is the time when 50% ot the A14Tyr(^125I) B28 Asp insulin has disappeared from the site of injection and Kd is the affinity of the ligand as measured by the TZD-assay described in “Analytical methods” below.

In data set [3] the target is T1, metal site of insulin R6 hexamers. The experiment in a line: TZD-assay: fluorescence based displacement assay. Format: binding. The note with it: affinity towards the zinc site, TZD-assay; read-out: Kd(app). The method, then: The binding affinity of ligands to the metal site of insulin R6 hexamers are measured in a fluorescense based displacement assay. The fluorescence of 5-(4-dimethylaminobenzylidene)thiazolidine-2,4-dione (TZD) which is a ligand for the metal site of insulin R6 is quenched upon displacement from the metal site to the solution. Titration of a ligand to a stock solution of insulin R6 hexamers with this compound mounted in the metal site allows the binding affinity of these ligands to be determined measuring the fluorescence at 455 nm upon excitation at 410 nm.
Stock solution: 0.02 mM human insulin, 0.007 mM Zn-acetate, 40 mM phenol, 0.01 mM TZD in 50 mM tris buffer adjusted to pH=8.0 with NaOH/ClO4^−.
The ligand is dissolved in DMSO to a concentration of 5 mM and added in aliquots to the stock solution to final concentrations of 0-250 µM.
Fluorescence measurements were carried out on a Perkin Elmer Spectrofluorometer LS50B. T main absorption band was excited at 410 nm and emission was detected at 455 nm. The resolution was 10 nm and 2.5 nm for excitation and emission, respectively.
This equation is fitted to the datapoints ΔF(455 nm))=ΔFmax* [ligand]free/(KD(app)*(1+[TZD]/KTZD)+[ligand]free)) KD(app) is the apparent dissociation constant and Fmax is the fluorescence at maximal ligand concentration. The value of KTZD is measured separately to 230 nM
Two different fitting-procedures can be used. One in which both parameters, KD(app) and Fmax, are adjusted to best fit the data and a second in which the value of Fmax is fixed (Fmax=1) and only KD(app) is adjusted. The given data are from the second fitting procedure. The Solver module of Microsoft Excel can be used to generate the fits from the data points.

A short description of data set [4]: Chemical stability of insulin formulations by SEC (size exclusion chromatography). Format: physicochemical. The note with it: formulated human insulin, 3 Zn2+ per hexamer. The method, then: (§1) The chemical stability of insulin formulations of the invention was characterised by HPLC (RPC, reverse phase chromatography and SEC, size exclusion chromatography). As reference, insulin formulated without ligands of the invention but with 0.3% DMSO was also investigated and shown below: [drawing]
(§2) Storage in HPLC 1 ml vials at 45° C. (5 d), 37° C. (2 w), 30° C. (6 w), 25° C. (10 w), 15° C. (30 w) gave about the same increase of transformation products correlating to an increase in reactions constants of a factor 3-4 per 10 degree.
SEC (size exclusion chromatography) on Waters insulin HMWP column, 300×7.8 mm, eluted by 15:20:65 of acetic acid: acetonitrile: arginine 1 g/L at flow of 1 mL/min and ambient temperature.
For orientation: SEC sorts molecules by how far they enter the pores of the column.

The nature of data set [5]: Chemical stability of insulin formulations by RPC (reverse phase chromatography). Format: physicochemical. Particulars: formulated human insulin, 3 Zn2+ per hexamer. The method, then:
as §1
FIG. 10. Reverse phase chromatography of formulated human insulin with 3 Zn^2+ per hexamer, 30 mM phenol, 150 mM mannitol, 3 mM phosphoric acid, sodium hydroxide to pH 7.4 and 0.3% DMSO corresponding to 3 ligands per hexamer at start (upper panel) and after storage for 2 weeks at 37° C. (lower panel): Preservatives before 20 min., “hydrophilic derivatives” (desamido-insulins) 20 min to main top insulin, “hydrophobic derivatives 1” main top to 64 min., and “hydrophobic derivatives 2” (insulin dimers) after 64 min.
as §2
RPC (reverse phase chromatography) on Waters SymmetryShield RP8 column, 150×4.6 mm and 3.5 μm, eluted by A: 0.2 M sodium sulfate+0.04 M sodium phosphate pH 7.2+10% acetonitrile and isocratically (i) or a gradient (g) of B: 70% acetonitrile [minutes/% B(i/g): 0/19, 21/24(i)(sudden change), 51/24(i), 81/39(g), 81.1/0(i), 82.3/19(i)] at flow of 0.9 mL/min and 30° C.

Read-outs that look alike come from different tables or passages of the source.

T1 sequence (P01308 25-54 limits assumed): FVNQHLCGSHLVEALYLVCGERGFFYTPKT
T1 sequence (P01308 90-110 limits assumed): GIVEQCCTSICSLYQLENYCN

In the case of `O=C(O)c1ccc([N+](=O)[O-])c(O)c1` [Example 4H3N, 3-hydroxy-4-nitro benzoic acid], in data set [1], the Kd was 50000 nM.

With `O=C1NC(=O)/C(=C/c2cccc3ccccc23)S1` [Example 68, 5-Naphthalen-1-ylmethylenethiazolidine-2,4-dione], the “effect on insulin aspart disappearance from subcutaneous injection site” value (shortened to “effect on insulin aspart disappearance”) in data set [2] is “no effect”. Moreover, the Kd in data set [3] amounted to 23 nM.

Consider `O=C(O)/C=C/c1ccc(/C=C2\SC(=O)NC2=O)cc1` [Example 462], for which the dimer result was “(0.048) % formed/year” in data set [4] (5° predicted); 0.28 % formed/year in data set [4] (15° C.); 1.09 % formed/year in data set [4] (25° C.); 2.17 % formed/year in data set [4] (30° C.); 6.24 % formed/year in data set [4] (37° C.); 21.2 % formed/year in data set [4] (45° C.). Moreover, the “effect on insulin aspart disappearance” value in data set [2] is given as “no effect”. Also, the “hphil (hydrophilic derivatives, desamido-insulins)” value in data set [5] (5° predicted) was “(0.293) % formed/year”; in data set [5] (15° C.), 1.02 % formed/year; in data set [5] (25° C.), 2.60 % formed/year; in data set [5] (30° C.), 4.07 % formed/year; in data set [5] (37° C.), 9.88 % formed/year; in data set [5] (45° C.) it was 20.4 % formed/year. Moreover, the “hphob1 (hydrophobic derivatives 1)” value in data set [5] (5° predicted) is “(0.336) % formed/year”; in data set [5] (15° C.) it was 1.28 % formed/year; in data set [5] (25° C.), 6.14 % formed/year; in data set [5] (30° C.), 4.42 % formed/year; in data set [5] (37° C.), 19.5 % formed/year; in data set [5] (45° C.), 43.8 % formed/year. Moreover, the “hphob2 (hydrophobic derivatives 2, insulin dimers)” value was “(0.062) % formed/year” in data set [5] (5° predicted); 0.38 % formed/year in data set [5] (15° C.); 0.78 % formed/year in data set [5] (25° C.); 1.65 % formed/year in data set [5] (30° C.); 4.68 % formed/year in data set [5] (37° C.); 17.5 % formed/year in data set [5] (45° C.). Further, in data set [3], the Kd was 58 nM.

Take `O=C(O)c1cc2cc(Br)ccc2cc1O` [Example 533, 7-bromo-3-hydroxy-2-naphthoic acid]: the dimer result is recorded as “(0.087) % formed/year” in data set [4] (5° predicted); 0.45 % formed/year in data set [4] (15° C.); 1.61 % formed/year in data set [4] (25° C.); 2.86 % formed/year in data set [4] (30° C.); 7.02 % formed/year in data set [4] (37° C.); 26.3 % formed/year in data set [4] (45° C.). Also, the “effect on insulin aspart disappearance” value in data set [2] is “no effect”. Also, the “hphil (hydrophilic derivatives, desamido-insulins)” value in data set [5] (5° predicted) is on record as “(0.55) % formed/year”; in data set [5] (15° C.), 1.80 % formed/year; in data set [5] (25° C.), 4.06 % formed/year; in data set [5] (30° C.), 6.76 % formed/year; in data set [5] (37° C.), 12.5 % formed/year; in data set [5] (45° C.), 30.7 % formed/year. For the same molecule, the “hphob1 (hydrophobic derivatives 1)” value is “(0.19) % formed/year” in data set [5] (5° predicted); 0.85 % formed/year in data set [5] (15° C.); 5.67 % formed/year in data set [5] (25° C.); 6.42 % formed/year in data set [5] (30° C.); 22.4 % formed/year in data set [5] (37° C.); 62.1 % formed/year in data set [5] (45° C.). The “hphob2 (hydrophobic derivatives 2, insulin dimers)” value in data set [5] (5° predicted) is recorded as “(0.079) % formed/year”; in data set [5] (15° C.) it was 0.42 % formed/year; in data set [5] (25° C.) it was 1.46 % formed/year; in data set [5] (30° C.), 2.25 % formed/year; in data set [5] (37° C.), 7.02 % formed/year; in data set [5] (45° C.), 23.4 % formed/year. Further, in data set [3], the Kd amounted to 383 nM.

Turning to `O=C(O)c1ccc(Cn2c3ccccc3c3cc(-c4nn[nH]n4)ccc32)cc1` [Example 738, 9-(4-Carboxybenzyl)-3-(2H-tetrazol-5-yl)-9H-carbazole], in data set [2], the “effect on insulin aspart disappearance” value is given as “no effect”. In addition, the Kd in data set [3] stood at 171 nM.

For `Cc1ccccc1Cn1c2ccccc2c2cc(-c3nn[nH]n3)ccc21` [Example 756, 9-(2-Methylbenzyl)-3-(2H-tetrazol-5-yl)-9H-carbazole], the “effect on insulin aspart disappearance” value in data set [2] is “no effect”. For the same molecule, the Kd in data set [3] came out at 3 nM.

Source of the values: patent US20050065066A1, “Stabilised insulin compositions” (priority 2002, published 2005).
